# Experiments:
# [1] = tested on: G4 Tel (DNA, G4) AGGGTTAGGGTTAGGGTTAGGG; test: UV-Vis titration (Soret red shift, hypochromism); settings: 100 mM K+ (KCl) plus potassium phosphate; 20 mM potassium phosphate, pH 6.8; ligand 2 µM; up to 2.5 equiv. DNA
# [2] = tested on: MYC (DNA, G4) TGAGGGTGGGTAGGGTGGGTAA; test: UV-Vis titration (Soret red shift, hypochromism); settings: 100 mM K+ (KCl) plus potassium phosphate; 20 mM potassium phosphate, pH 6.8; ligand 2 µM; up to 2.5 equiv. DNA
# [3] = tested on: KRAS (DNA, G4) AGGGCGGTGTGGGAATAGGGAA; test: UV-Vis titration (Soret red shift, hypochromism); settings: 100 mM K+ (KCl) plus potassium phosphate; 20 mM potassium phosphate, pH 6.8; ligand 2 µM; up to 2.5 equiv. DNA
# [4] = tested on: ds26 (DNA, duplex) CAATCGGATCGAATTCGATCCGATTG; test: UV-Vis titration (Soret red shift, hypochromism); settings: 100 mM K+ (KCl) plus potassium phosphate; 20 mM potassium phosphate, pH 6.8; ligand 2 µM; up to 2.5 equiv. DNA
# [5] = tested on: G4 Tel (DNA, G4) AGGGTTAGGGTTAGGGTTAGGG; test: fluorescent intercalator displacement (FID); settings: 100 mM K+ (KCl) plus potassium phosphate; 20 mM potassium phosphate, pH 6.8; thiazole orange 3.5 µM displaced; DNA 1 µM
# [6] = tested on: ds26 (DNA, duplex) CAATCGGATCGAATTCGATCCGATTG; test: fluorescent intercalator displacement (FID); settings: 100 mM K+ (KCl) plus potassium phosphate; 20 mM potassium phosphate, pH 6.8; thiazole orange 3.5 µM displaced; DNA 1 µM
# [7] = tested on: KRAS (DNA, G4) AGGGCGGTGTGGGAATAGGGAA; test: fluorescent intercalator displacement (FID); settings: 100 mM K+ (KCl) plus potassium phosphate; 20 mM potassium phosphate, pH 6.8; thiazole orange 3.5 µM displaced; DNA 1 µM
# [8] = tested on: ds26 (DNA, duplex) CAATCGGATCGAATTCGATCCGATTG; test: fluorescence titration (ligand emission); settings: 100 mM K+ (KCl) plus potassium phosphate, 20 mM potassium phosphate, pH 6.8, ligand 2 µM, apparent
# [9] = tested on: G4 Tel (DNA, G4) AGGGTTAGGGTTAGGGTTAGGG; test: fluorescence titration (ligand emission); settings: 100 mM K+ (KCl) plus potassium phosphate, 20 mM potassium phosphate, pH 6.8, ligand 2 µM, apparent
# [10] = tested on: MYC (DNA, G4) TGAGGGTGGGTAGGGTGGGTAA; test: fluorescent intercalator displacement (FID); settings: 100 mM K+ (KCl) plus potassium phosphate; 20 mM potassium phosphate, pH 6.8; thiazole orange 3.5 µM displaced; DNA 1 µM
# [11] = tested on: KRAS (DNA, G4) AGGGCGGTGTGGGAATAGGGAA; test: fluorescence titration (ligand emission); settings: 100 mM K+ (KCl) plus potassium phosphate; 20 mM potassium phosphate, pH 6.8; ligand 2 µM; apparent; Hill n = 1.59
# [12] = tested on: MYC (DNA, G4) TGAGGGTGGGTAGGGTGGGTAA; test: fluorescence titration (ligand emission); settings: 100 mM K+ (KCl) plus potassium phosphate; 20 mM potassium phosphate, pH 6.8; ligand 2 µM; apparent; Hill n = 3.85
binding [1],binding [2],binding [3],binding [4],DC50 [5] [µM],DC50 [6] [µM],DC50 [7] [µM],KD ([8]; Hill n = 0.49) [µM],KD ([9]; Hill n = 1.0) [µM],DC50 [10] [µM],KD [11] [µM],KD [12] [µM],KD ([8]; Hill n = 0.67) [µM],KD ([9]; Hill n = 1.35) [µM],SMILES
yes,yes,yes,yes,–,–,–,–,–,–,–,–,–,–,C[n+]1ccc(-c2c3nc(c(-c4cc[n+](C)cc4)c4ccc([nH]4)c(-c4cc[n+](C)cc4)c4nc(c(-c5cc[n+](C)cc5)c5ccc2[nH]5)C=C4)C=C3)cc1
–,–,–,–,1.12 ± 0.27,2.00 ± 0.37,0.28 ± 0.01,0.01 ± 0.007,0.63 ± 0.29,0.18 ± 0.03,–,–,–,–,C[n+]1ccc(-c2c3nc(c(-c4cc[n+](C)cc4)c4ccc([n-]4)c(-c4cc[n+](C)cc4)c4nc(c(-c5cc[n+](C)cc5)c5ccc2[n-]5)C=C4)C=C3)cc1.[Ag+2]
–,–,–,–,0.34 ± 0.02,0.65 ± 0.04,0.37 ± 0.01,–,–,0.20 ± 0.02,2.72 ± 0.42,1.32 ± 0.13,2.69 ± 0.02,1.30 ± 0.02,C[n+]1ccc(-c2c3nc(c(-c4cc[n+](C)cc4)c4ccc([n-]4)c(-c4cc[n+](C)cc4)c4nc(c(-c5cc[n+](C)cc5)c5ccc2[n-]5)C=C4)C=C3)cc1.[Zn+2]

# Reference: publication PMC11678824 (2024)
